Reference: patent US20230219961A1, “Pyridine acetamide derivative serving as CDK inhibitor, and preparation method therefor and use thereof” (Suzhou AlphaMa Biotechnology Co., Ltd., priority 2020, published 2023)

How the values were obtained:
Mv4-11 cells = assay: Inhibition of the proliferation of Mv4-11 cells (CCK8); assay type: cell-based; details: Homo sapiens, MV4-11, 48 h
Experimental: The inhibition effect of the compounds of the present disclosure on the proliferation of Mv4-11 cells (ATCC:CRL-9591™) in vitro was determined by the following method:
1) Cell inoculation: Mv4-11 cells with good growing state in logarithmic growth phase were inoculated into a 96-well plate at 20000 cells per well and 50 uL, and cultured at 37° C. and under 5% CO2 condition for 2-4 h.
2) Administration: The compound was diluted with 1640 medium containing 10% FBS and 1% PS: 0.4 uL of the compound with an initial concentration of 1 mM was placed in a dilution plate, each added with 199.6 uL of the above culture medium, and gradiently diluted 4-fold, so that the final concentration in the added cell was 1000, 250, 62.5, 15.625, 3.91, 0.98, 0.24, 0.06 nM. 50 µL of the medium containing the compound was sequentially added, and it was placed in a 37° C., 5% CO2 cell incubator for 48 hours.
3) Detection: 10uL CCK8 (Dojindo, CK 04) solution was added to each well, incubated in 37° C. 5% CO2 cell incubator for 2 hours, and then the OD450 value was read by Synegry H1(BioTek) multimode microplate reader.
4) Calculation: The IC50 value was calculated using Graphpad prism 5.0 software according to the concentration of the compound and the corresponding signal value.

CDK9 = biological target: T1, CDK9 (Homo sapiens, UniProt P50750); assay: Inhibitory effect on the kinase activity of CDK9 in vitro (Caliper); assay type: biochemical; details: 10 uM ATP, 0.2 ug/uL CTD3 peptide; read-out: CDK 9 IC50
T1 construct: purchased Millipore 14-685 M
Experimental: (§1) The detection of the inhibitory effect of the compounds of the present disclosure on the kinase activity of CDK7/CDK9 in vitro was determined by the following method:
(§2) 1) The compound was accurately weighed and dissolved in DMSO (Sigma, D2650) to a concentration of 100 mM for later use. The compound was diluted to 5-fold of a desired highest concentration, and diluted 4-fold into 6 concentration gradients, allowing the final concentration of the compound in the reaction system to be CDK7: 3000, 750, 188, 47, 12, 3 nM; CDK9: 100, 25, 6.25, 1.56, 0.39, 0.098 nM. 5 ul was taken to a 384-well plate (Corning, 4512).
(§3) 2) Kinase reaction: 10uL protein kinase (CDK7: Eurofilns,14-476 M; CDK9: Millipore,14-685 M) solution was added to the 384-well plate (Corning, 4512) containing the compound, and allowed to stand at room temperature for 10 min; a mixed solution of ATP(Sigma, A7699) and substrate polypeptide (CDK7: 77 uM ATP&0.2ug/uL CTD3 peptide (GL Biochem,SY356885); CDK9: 10 uM ATP&0.2 ug/uL CTD3 peptide (GL Biochem,SY356885)) was added, and allowed to stand at 28° C. for a short time; and then a stop solution was added to terminate the reaction at 25 uL per well.
(§4) 3) Detection: Data was collected by Caliper.
(§5) 4) Calculation: The IC50 value was calculated by Graphpad prism 5.0 software according to the concentration of the compound and the corresponding signal value.

CDK7 = biological target: T2, CDK7 (Homo sapiens, UniProt P50613); assay: Inhibitory effect on the kinase activity of CDK7 in vitro (Caliper); assay type: biochemical; details: 77 uM ATP, 0.2 ug/uL CTD3 peptide; read-out: CDK 7 IC50
T2 construct: purchased Eurofilns (sic; Eurofins) 14-476 M
Experimental: as §1, §2, §3, §4, §5

T2 sequence (P50613 whole entry): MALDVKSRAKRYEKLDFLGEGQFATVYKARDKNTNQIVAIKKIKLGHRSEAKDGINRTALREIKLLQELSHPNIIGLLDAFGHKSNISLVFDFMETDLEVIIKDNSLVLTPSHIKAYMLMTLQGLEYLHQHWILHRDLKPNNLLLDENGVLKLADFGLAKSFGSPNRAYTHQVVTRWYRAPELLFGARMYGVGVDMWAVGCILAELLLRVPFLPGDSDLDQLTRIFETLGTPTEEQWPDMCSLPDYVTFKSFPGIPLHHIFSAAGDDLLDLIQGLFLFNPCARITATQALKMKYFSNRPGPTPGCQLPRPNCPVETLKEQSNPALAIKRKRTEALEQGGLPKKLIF
T2 sequence (P51946 whole entry partner): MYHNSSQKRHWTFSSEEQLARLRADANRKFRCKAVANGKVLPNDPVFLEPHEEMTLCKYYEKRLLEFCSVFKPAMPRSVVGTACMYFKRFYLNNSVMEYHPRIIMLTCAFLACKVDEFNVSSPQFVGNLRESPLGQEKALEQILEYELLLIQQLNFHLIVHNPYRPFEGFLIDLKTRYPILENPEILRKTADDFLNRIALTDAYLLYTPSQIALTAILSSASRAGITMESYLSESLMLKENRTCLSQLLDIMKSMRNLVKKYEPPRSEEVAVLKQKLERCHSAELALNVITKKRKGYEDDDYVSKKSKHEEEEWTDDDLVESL
T2 sequence (P51948 whole entry partner): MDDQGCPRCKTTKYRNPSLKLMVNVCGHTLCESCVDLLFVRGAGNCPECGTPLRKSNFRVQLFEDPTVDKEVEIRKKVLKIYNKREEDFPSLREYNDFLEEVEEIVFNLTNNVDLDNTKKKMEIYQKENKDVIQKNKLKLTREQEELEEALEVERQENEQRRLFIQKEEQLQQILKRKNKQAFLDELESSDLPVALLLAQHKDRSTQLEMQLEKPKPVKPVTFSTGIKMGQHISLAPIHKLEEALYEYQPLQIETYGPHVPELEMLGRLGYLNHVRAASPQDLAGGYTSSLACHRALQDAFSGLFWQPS
T1 sequence (P50750 whole entry): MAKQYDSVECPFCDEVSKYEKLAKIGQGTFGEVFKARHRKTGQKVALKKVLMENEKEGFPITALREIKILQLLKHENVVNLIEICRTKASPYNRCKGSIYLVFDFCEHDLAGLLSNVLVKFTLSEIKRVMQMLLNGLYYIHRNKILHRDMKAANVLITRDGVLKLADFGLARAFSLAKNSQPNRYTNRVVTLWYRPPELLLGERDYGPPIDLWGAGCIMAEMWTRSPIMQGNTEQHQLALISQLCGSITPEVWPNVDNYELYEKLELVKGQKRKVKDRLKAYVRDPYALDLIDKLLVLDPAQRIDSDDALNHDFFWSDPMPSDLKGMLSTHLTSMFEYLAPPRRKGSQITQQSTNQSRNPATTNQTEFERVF
T1 sequence (O60563 whole entry partner): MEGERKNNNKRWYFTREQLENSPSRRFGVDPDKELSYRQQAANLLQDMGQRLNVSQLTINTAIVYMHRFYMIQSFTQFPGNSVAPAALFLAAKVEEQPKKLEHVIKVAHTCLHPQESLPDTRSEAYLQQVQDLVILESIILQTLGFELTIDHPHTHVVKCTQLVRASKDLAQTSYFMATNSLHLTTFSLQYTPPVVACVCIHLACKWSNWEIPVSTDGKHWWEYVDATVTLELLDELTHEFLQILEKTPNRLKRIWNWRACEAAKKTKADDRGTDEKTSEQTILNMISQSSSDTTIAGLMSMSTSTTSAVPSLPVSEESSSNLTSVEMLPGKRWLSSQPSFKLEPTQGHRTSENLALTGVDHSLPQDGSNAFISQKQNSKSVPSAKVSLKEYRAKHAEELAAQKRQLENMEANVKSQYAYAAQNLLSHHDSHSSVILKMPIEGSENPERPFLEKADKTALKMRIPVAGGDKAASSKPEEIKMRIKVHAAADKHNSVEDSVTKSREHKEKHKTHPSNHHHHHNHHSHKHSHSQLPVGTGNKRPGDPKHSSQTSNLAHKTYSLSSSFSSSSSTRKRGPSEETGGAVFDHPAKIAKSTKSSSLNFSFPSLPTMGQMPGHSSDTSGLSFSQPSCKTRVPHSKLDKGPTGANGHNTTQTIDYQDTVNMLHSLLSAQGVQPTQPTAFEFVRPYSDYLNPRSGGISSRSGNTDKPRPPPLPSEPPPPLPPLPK

IC50 (Mv4-11 cells) [nM]	IC50 (CDK9) [nM]	IC50 (CDK7) [nM]	Compound
8.2	1.7	118	CC1(C)Cc2c(-c3cc(NC(=O)Cc4cccc(C#N)n4)ncc3Cl)cnn2C1 [Compound 7, N-(5-chloro-4-(5,5-dimethyl-5,6-dihydro-4 H-pyrrolo[1,2-b]pyrazol-3-yl)pyridin-2-yl) -2-(6-cyanopyridin-2-yl)acetamide]
9.9	3.1	197	CC1(C)Cc2c(-c3cc(NC(=O)Cc4cccnc4)ncc3Cl)cnn2C1 [Compound 6, N-(5-chloro-4-(5,5-dimethyl-5,6-dihydro-4 H-pyrrolo[1,2-b]pyrazol-3-yl)pyridin-2-yl) -2-(pyridin-3-yl)acetamide]
4.2		109	CC(=O)N[C@@H]1CCC[C@H](C(=O)Nc2cc(-c3cnn4c3CC(C)(C)C4)c(Cl)cn2)C1 [AZD4573, reference compound]
11.2	5.9		C[C@H](C(=O)Nc1cc(-c2cnn3c2CC(C)(C)C3)c(Cl)cn1)c1ccnc(C#N)c1 [Compound 15-1, (S)-N-(5-chloro-4-(5,5-dimethyl-5,6-dihydro-4H-pyrrolo[1,2-b]pyrazol-3-yl)pyridin-2-yl)-2-(2-cyanopyridin-4-yl)propionamide (assumed)]
19.6	3.4	116	CC(=O)Nc1cccc(CC(=O)Nc2cc(-c3cnn4c3CC(C)(C)C4)c(Cl)cn2)c1 [Compound 8, 2-(3-acetylaminophenyl)-N-(5-chloro-4-(5,5-dimethyl-5,6-dihydro-4H-pyrrolo[1,2-b]pyrazol-3-yl)pyridin-2-yl)acetamide]
3.7	8.4	25.1	C=CC(=O)NCc1ccc(-c2ccc([C@H](C)C(=O)Nc3cc(-c4cnn5c4CC(C)(C)C5)c(Cl)cn3)cn2)cn1 [Compound 20-1, (S)-N-((5-(1-((5-chloro-4-(5,5-dimethyl-5,6-dihydro-4H-pyrrolo[1,2-b]pyrazol-3-yl)pyridin-2-yl)amino)-1-oxopropan-2-yl)-[2,3′ -bipyridin]-6′-yl)methyl)acrylamide (assumed)]
6.4	3.4		COc1cc([C@H](C)C(=O)Nc2cc(-c3cnn4c3CC(C)(C)C4)c(Cl)cn2)ccn1 [Compound 16-1, (S)-N-(5-chloro-4-(5,5-dimethyl-5,6-dihydro-4H-pyrrolo[1,2-b]pyrazol-3-yl)pyridin-2-yl)-2-(2-methoxypyridin-4-yl)propionamide (assumed)]
7.4	3	96	CC1(C)Cc2c(-c3cc(NC(=O)Cc4cccc(C(N)=O)c4)ncc3Cl)cnn2C1 [Compound 1, 3-(2-((5-chloro-4-(5,5-dimethyl-5,6-dihydro-4H-pyrrolo[1,2-b]pyrazol-3-yl)pyridin-2-yl)amino)-2-oxoethyl)benzamide]
12.2	5.2		COc1ccc(CC(=O)Nc2cc(-c3cnn4c3CC(C)(C)C4)c(Cl)cn2)cn1 [Compound 12, N-(5-chloro-4-(5,5-dimethyl-5,6-dihydro-4 H-pyrrolo[1,2-b]pyrazol-3-yl)pyridin-2-yl) -2-(6-methoxypyridin-3-yl)acetamide]
25	3	74	C[C@@H](C(=O)Nc1cc(-c2cnn3c2CC(C)(C)C3)c(Cl)cn1)c1ccnc(C(C)(C)O)c1 [Compound 18-2, (R)-N-(5-chloro-4-(5,5-dimethyl-5,6-dihydro-4H-pyrrolo[1,2-b]pyrazol-3-yl)pyridin-2-yl)-2-(2-(2-hydroxypropan-2-yl)pyridin-4-yl)propionamide (assumed)]
10.1	2.3		CC(=O)Nc1cccc([C@H](C)C(=O)Nc2cc(-c3cnn4c3CC(C)(C)C4)c(Cl)cn2)c1 [Compound 14-1, (S)-2-(3-acetylacetylaminophenyl)-N-(5-chloro-4-(5,5-dimethyl-5,6-dihydro-4H-pyrrolo [1,2-b]pyrazol-3-yl)pyridin-2-yl)propionamide (assumed)]
